The text below walks through data of article PMC7581365, “Structural features and development of an assay platform of the parasite target deoxyhypusine synthase of Brugia malayi and Leishmania major” (PLoS Neglected Tropical Diseases, 2020).

Data set [1] has as its target T1, Deoxyhypusine synthase (BmDHS) (Brugia malayi, UniProt A0A0J9XTC4).
T1 construct: gene bma-dhps-1; full-length, recombinant BmDHS (residues 1–366)
T1 sequence (A0A0J9XTC4 1-366): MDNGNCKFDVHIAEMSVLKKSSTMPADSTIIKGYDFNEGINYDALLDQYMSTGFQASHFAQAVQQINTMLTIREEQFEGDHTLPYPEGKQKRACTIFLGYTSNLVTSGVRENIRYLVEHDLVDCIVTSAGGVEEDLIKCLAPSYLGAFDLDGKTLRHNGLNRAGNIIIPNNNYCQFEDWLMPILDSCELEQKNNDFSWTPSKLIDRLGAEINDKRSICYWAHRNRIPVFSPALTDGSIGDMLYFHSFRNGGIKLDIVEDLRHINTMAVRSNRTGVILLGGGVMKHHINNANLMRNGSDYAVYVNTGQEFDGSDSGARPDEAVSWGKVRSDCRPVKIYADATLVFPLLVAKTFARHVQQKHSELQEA
Briefly: NADH fluorescence assay of DHS partial reaction with purified recombinant enzyme. Type of data set: biochemical.

Data set [2] concerns the molecule itself. In words: SEC; analytical gel filtration, Superdex 200 Increase 10/300, 900 ug purified BmDHS; 20 mM HEPES pH 7.5, 300 mM NaCl, 5% glycerol, 0.5 mM TCEP; calibrated with protein standards (Kav against log mass).

With `N=C(N)NCCCCCCCN` [GC7], the IC50 in data set [1] amounted to 28 nM.

B1: Brugia malayi deoxyhypusine synthase (BmDHS), full-length recombinant protein (enzyme)
chain: SMDNGNCKFDVHIAEMSVLKKSSTMPADSTIIKGYDFNEGINYDALLDQYMSTGFQASHFAQAVQQINTMLTIREEQFEGDHTLPYPEGKQKRACTIFLGYTSNLVTSGVRENIRYLVEHDLVDCIVTSAGGVEEDLIKCLAPSYLGAFDLDGKTLRHNGLNRAGNIIIPNNNYCQFEDWLMPILDSCELEQKNNDFSWTPSKLIDRLGAEINDKRSICYWAHRNRIPVFSPALTDGSIGDMLYFHSFRNGGIKLDIVEDLRHINTMAVRSNRTGVILLGGGVMKHHINNANLMRNGSDYAVYVNTGQEFDGSDSGARPDEAVSWGKVRSDCRPVKIYADATLVFPLLVAKTFARHVQQKHSELQEA
notes: additional N-terminal serine residue introduced by the cloning strategy and left over after TEV cleavage of the poly-His tag; Deoxyhypusine synthase of Brugia malayi, encoded by bma-DHPS-1, full-length enzyme, residues 1-366; Expressed from pNIC28-Bsa4; Molecular weight by LC-MS 41,083.5 Da; also called B. malayi (Bm)DHS; filarial worm DHS; source: E. coli BL21(DE3)-R3-pRARE2, purified (HisTrap …)
Turning to B1, the “stoichiometry N” value in data set [2] came to 4.
